We go through one compound from article PMC4655838, “Versatility in phospho-dependent molecular recognition of the XRCC1 and XRCC4 DNA-damage scaffolds by aprataxin-family FHA domains” (DNA Repair, 2015).

What all share (type): binding
For assay [1], the target named is T1, wild-type aprataxin FHA domain (Homo sapiens, UniProt Q7Z2E3).
T1 construct: aprataxin residues 1–105; GST (pGEX-6P-1) (N, cleaved yes); made in house; host or cells: Escherichia coli BL21 (DE3)
As to the kind of experiment: ITC of wild-type aprataxin FHA domain with XRCC1 and XRCC4 phosphopeptides. The following applies: 22 °C, 50 mM HEPES pH 7.5, 150 mM NaCl, 5 mM β-mercaptoethanol, peptide in syringe, XRCC1 peptides 1 mM into 100 μM protein, XRCC4 peptides 300 μM into 30 μM protein, single-site model, representative of triplicate. The text has this:
(§1) The genes for aprataxin residues 1–105 and APLF residues 1–106 were amplified using primer sets which incorporated 5′ BamHI and 3′ XhoI sites. PCR products and pGEX-6P-1 vector were digested with BamHI and XhoI and religated. All point mutations were generated using a QuickChange Site-Directed Mutagenesis Kit (Stratagene) following the manufacturer's recommended protocol.
(§2) For expression, the pGEX-6P-1/aprataxin-FHA constructs were transformed into Escherichia coli strain BL21 (DE3) and the pGEX-6P-1/APLF-FHA constructs transformed into the strain Rosetta2 (DE3). Cells were grown in LB at 37 °C to an A600 of 0.5, induced with 0.4 mM isopropyl 1-thio-β-D-galactopyranoside and incubated at 18 °C for a further 16 h before harvesting. Cells were lysed by sonication and clarified by centrifugation (20,000 × g × 30 min). The supernatant was applied to a glutathione-4B resin (Amersham) and cleaved from the resin with rhinovirus 3C protease. Proteins were purified further by gel-filtration chromatography on a Superdex 75 matrix in 20 mM Tris pH 7.5, 150 mM NaCl, 5 mM DTT. Selenomethionine-labelled APLF L91 M protein was expressed in Rosetta2 (DE3) cells cultured in SelenoMet base media and nutrients supplemented with seleno-methionine solution (Molecular Dimensions Ltd.) and purified as the wild-type protein.
(§3) Phosphopeptides based on the XRCC1 sequence 515-YAGSTDENTDSEEHQ-529 and the XRCC4 sequence 229-YDESTDEES-237 were synthesised with amidated C-termini to avoid potential end-effects of a free carboxy-terminus by Dr. W. Mawby (University of Bristol), purified by HPLC and characterised by mass spectrometry. FHA-phosphopeptide binding was quantified by isothermal titration calorimetry using a Microcal Omega VP-ITC calorimeter (MicroCal Inc., Northampton, MA). Protein was dialysed against ITC buffer (50 mM HEPES pH 7.5, 150 mM NaCl, 5 mM β-mercaptoethanol) and peptides were dissolved in the dialysis buffer. Experiments were carried out at 22 °C and involved 30 successive 10 μl injections of peptide solution into a sample cell containing protein solution. Titrations with XRCC1 peptides used peptide at 1 mM and protein at 100 μM and titrations with XRCC4 peptides used peptide at 300 μm and protein at 30 μM. Heats of dilution were subtracted and binding isotherms were plotted and analysed with MicroCal origin version 7.0, assuming a single-site binding model.

Assay [2] has as its target T2, wild-type APLF FHA domain (Homo sapiens, UniProt Q8IW19).
T2 construct: APLF residues 1–106; GST (pGEX-6P-1) (N, cleaved yes); made in house; host or cells: Escherichia coli Rosetta2 (DE3)
T2 sequence (Q8IW19 1-106): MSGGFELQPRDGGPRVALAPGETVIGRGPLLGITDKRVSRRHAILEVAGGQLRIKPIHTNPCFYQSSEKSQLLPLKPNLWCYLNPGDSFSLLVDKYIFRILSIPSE
As to the kind of experiment: ITC of wild-type APLF FHA domain with XRCC1 and XRCC4 phosphopeptides. The conditions noted are these: 22 °C, 50 mM HEPES pH 7.5, 150 mM NaCl, 5 mM β-mercaptoethanol, peptide in syringe, XRCC1 peptides 1 mM into 100 μM protein, XRCC4 peptides 300 μM into 30 μM protein, single-site model, representative of triplicate.
Description: as §1
For expression, the pGEX-6P-1/aprataxin-FHA constructs were transformed into Escherichia coli strain BL21 (DE3) and the pGEX-6P-1/APLF-FHA constructs transformed into the strain Rosetta2 (DE3). Cells were grown in LB at 37 °C to an A600 of 0.5, induced with 0.4 mM isopropyl 1-thio-β-D-galactopyranoside and incubated at 18 °C for a further 16 h before harvesting. […]
Phosphopeptides based on the XRCC1 sequence 515-YAGSTDENTDSEEHQ-529 and the XRCC4 sequence 229-YDESTDEES-237 were synthesised with amidated C-termini to avoid potential end-effects of a free carboxy-terminus by Dr. W. Mawby (University of Bristol), purified by HPLC and characterised by mass spectrometry. FHA-phosphopeptide binding was quantified by isothermal titration calorimetry using a Microcal Omega VP-ITC calorimeter (MicroCal Inc., Northampton, MA). […] Heats of dilution were subtracted and binding isotherms were plotted and analysed with MicroCal origin version 7.0, assuming a single-site binding model.

Assay [3] addresses T3, K38A Mutant of aprataxin FHA domain (Homo sapiens, UniProt Q7Z2E3, K52A).
T3 construct: aprataxin residues 1–105; GST (pGEX-6P-1) (N, cleaved yes); made in house; host or cells: Escherichia coli BL21 (DE3)
In words: ITC of K38A mutant of aprataxin FHA domain with XRCC1 and XRCC4 phosphopeptides. The following applies: 22 °C, 50 mM HEPES pH 7.5, 150 mM NaCl, 5 mM β-mercaptoethanol, single-site model.
Description: as §1, §2, §3

For assay [4], the target named is T4, aprataxin FHA domain (Homo sapiens, UniProt Q7Z2E3).
T4 construct: aprataxin residues 1–105; GST (pGEX-6P-1) (N, cleaved yes); made in house; host or cells: Escherichia coli BL21 (DE3)
As to the kind of experiment: NMR (1H-SOFAST-HMQC) titrations of aprataxin FHA domain with XRCC1 phosphopeptides. The following applies: NMR titration, 22 °C. The procedure: NMR experiments were carried out at 22 °C on Bruker Avance II+ 600 MHz and Avance III 700 MHz spectrometers, each equipped with a cryogenic triple-resonance probe. Protein and peptides were prepared in NMR buffer (20 mM Na Acetate pH 5.8, 50 mM NaCl, 2 mM DTT). Three-dimensional HNCA, HNCO, HNCACB and CBCA(CO)NH experiments were performed to obtain backbone assignments. NMR titration experiments were carried out by adding the unlabelled XRCC1 peptides to ^15N-labeled aprataxin FHA domain. The initial protein concentration was 92 μM and volumes of 2 mM stock solution of peptide were added until the protein:peptide ratio was 1:4. ^1H-SOFAST-HMQC [36] spectra were measured after each titration step. All spectra were processed using nmrPipe, and analysed using CARA/NEASY [38]. The weighted chemical shift change (in ppm units) of each amide proton (ΔδHN) and nitrogen (ΔδN) was calculated according to the equation: Δδtotal = [(ΔδHNWHN)^2 + (ΔδNWN)^2]^1/2 with WHN = 1 and WN = 0.154 [39]. Weighted chemical shifts for residues D37, V45, Q46, V61 and V63 were plotted against peptide concentration to determine individual Kds and averaged to determine the apparent Kd.

Assay [5] concerns the target T5, R42A Mutant of aprataxin FHA domain (Homo sapiens, UniProt Q7Z2E3, R56A).
T5 construct: aprataxin residues 1–105; GST (pGEX-6P-1) (N, cleaved yes); made in house; host or cells: Escherichia coli BL21 (DE3)
In words: ITC of R42A mutant of aprataxin FHA domain with XRCC1 and XRCC4 phosphopeptides. The following applies: 22 °C, 50 mM HEPES pH 7.5, 150 mM NaCl, 5 mM β-mercaptoethanol, single-site model.
Description: as §1, §2, §3

The structures appear in SMILES notation. Read-outs that look alike come from different tables or passages of the source. Square brackets hold non-standard residues; d marks the D form. Peptide text beside a SMILES is read from it. pT = C[C@@H](OP(=O)(O)O)[C@H](N)C(=O)O; pS = N[C@@H](COP(=O)(O)O)C(=O)O

T4 sequence (Q7Z2E3 15-119): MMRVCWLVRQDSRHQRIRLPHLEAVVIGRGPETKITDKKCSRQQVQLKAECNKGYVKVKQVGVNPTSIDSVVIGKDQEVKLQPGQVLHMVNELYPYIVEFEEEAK
T1 sequence (Q7Z2E3 15-119): as above
T3 sequence (Q7Z2E3 15-119 K52A): as the sequence (Q7Z2E3 15-119) above, with K38A counted along it
T5 sequence (Q7Z2E3 15-119 R56A): as the sequence (Q7Z2E3 15-119) above, with R42A counted along it

Regarding `C[C@H](NC(=O)[C@@H](N)Cc1ccc(O)cc1)C(=O)NCC(=O)N[C@@H](COP(=O)(O)O)C(=O)N[C@H](C(=O)N[C@@H](CC(=O)O)C(=O)N[C@@H](CCC(=O)O)C(=O)N[C@@H](CC(N)=O)C(=O)N[C@H](C(=O)N[C@@H](CC(=O)O)C(=O)N[C@@H](CO)C(=O)N[C@@H](CCC(=O)O)C(=O)N[C@@H](CCC(=O)O)C(=O)N[C@@H](Cc1c[nH]cn1)C(=O)N[C@@H](CCC(N)=O)C(N)=O)[C@@H](C)OP(=O)(O)O)[C@@H](C)OP(=O)(O)O` [YAGpSpTDENpTDSEEHQ] (H-YAG[pS][pT]DEN[pT]DSEEHQ-NH2), the Kd in assay [1] came out at 0.5 ± 0.05 µM; in assay [2] it was 11 ± 0.5 µM; in assay [3], 4.4 ± 0.3 µM; in assay [4] (20 mM Na Acetate pH 5.8, 50 mM NaCl, 2 mM DTT, 92 µM 15N aprataxin FHA, 2 mM peptide stock, read-out: Kd from weighted chemical shift of residue Asp37), 0.1 µM; in assay [4] (pH 5.8, 92 µM aprataxin FHA, read-out: Kd from weighted chemical shift of residue Gln46), 0.1 µM; in assay [4] (pH 5.8, 92 µM aprataxin FHA, read-out: Kd from weighted chemical shift of residue Val45), 0.6 µM. The Kd in assay [4] (pH 5.8, 92 µM aprataxin FHA, read-out: Kd from weighted chemical shift of residue Val61) is 0.1 µM; in assay [4] (pH 5.8, 92 µM aprataxin FHA, read-out: Kd from weighted chemical shift of residue Val63) it was 0.5 µM; in assay [4] (pH 5.8, mean of individual Kds of D37, V45, Q46, V61, V63, read-out: Kd, Mean (SEM) over five residues (apparent Kd)), 0.3 µM; in assay [4] (pH 5.8, tighter binders not well defined due to high protein concentration, read-out: overall apparent affinity (Kdapp) estimated from NMR titrations), less than 1 µM; in assay [5], 28.7 ± 1.9 µM.
